Where two headings read alike, the source gives them in different places.
Assays:
Type in all cases: in vivo
Myzus persicae = experiment: Insecticidal activity against Myzus persicae, Airbrush spray on cabbage leaves; settings: 50 mg/L, after 48 h, read-out: mortality rate against Myzus persicae
Protocol: (§1) After the compound to be determined was dissolved in a mixed solvent of acetone/methanol (1:1), it was diluted with water containing 0.1% (wt) Tween-80 to a desired concentration.
(§2) Mythimna separata, Diamondback moth, Chilo suppressalis, Spodoptera exigua, Myzus persicae, and Franklinella occidentalis were used as targets, and the activity was tested by an Airbrush spray method.
Determination method: a culture dish with a diameter of 6 cm was taken, the bottom of the dish was covered by a layer of filter paper, and an appropriate amount of tap water was added to moisturize the paper. Cabbage leaves with an appropriate size (the diameter was about 3 cm) and 15-30 aphids grown were cut from cabbage plants used to culture Myzus persicae, winged aphids and aphids on the front of the leave were removed, and it was placed in the culture dish while the back of the leave was upward. The pressure of airbrush spray treatment was 10 psi (about 0.7 kg/cm^2), the liquid spray volume was 0.5 mL, and there were 3 replicates for each treatment. After the treatment, the leave was put into an observation room for culture at 25° C. and a relative humidity of 60-70%. After 48 h, the number of live insects was investigated and the mortality rate was calculated.

cat flea = experiment: Insecticidal experiment on cat flea, thin film in culture dish; settings: Ctenocephalides felis, 72 h, read-out: mortality rate, cat flea
Protocol: 4 mg of the compound to be determined was dissolved in 40 mL of acetone to obtain an acetone solution with a concentration of 100 mg/L. 400 μL of the drug solution was applied on the bottom and sides of a culture dish with an inner diameter of 5.3 cm, then after acetone was evaporated, a thin film of the compound of the present invention was made on the inner wall of the culture dish. The inner wall of the culture dish used was 40 cm^2, and the treatment dosage was 1 μg/cm^2. 10 adult cat fleas (mixed male and female) were put into the dish, and it was stored in a constant-temperature room at 25° C. after being covered. The number of dead insects after 72 h was checked and the mortality rate was calculated. The experiment was repeated for 3 times.

Chilo suppressalis = experiment: Insecticidal activity against Chilo suppressalis, sprayed rice stems; settings: 72 h, 0.625 mg/L, 3 days after the administration, 3rd-instar larvae, read-out: mortality rate against Chilo suppressalis
Protocol: as §1, §2
Determination method: 1) Preparation of rice seedlings: rice was cultured in a plastic small cup with a diameter of 4.5 cm and a height of 4 cm in a constant temperature room (the temperature was 26-28° C., the relative humidity was about 60-80%, and the illumination was 16hL:8hD), when the rice grown to a 4-5 leaf stage, robust and uniformly grown rice seedlings were selected for pharmaceutical treatment, and 3 replicates were set for each treatment. 2) Preparation of test insects: 3rd-instar larvae of Chilo suppressalis were continuously reared indoors. 3) Rice stems were sprayed and insects were introduced. A spray method was used to treat whole rice seedlings with uniform spray, and each treatment was 15 mL. Blank controls were treated firstly, and then the above operation was repeated in an order of experimental concentrations from low to high. After the spray treatment of the rice seedlings, they were placed in the shade to air-dry drug liquid, about 5 cm of the stem from a basal part of the stem was cut and fed to the test insects. A glass culture dish with a diameter of 90 mm was prepared, filter paper was placed on the bottom of the dish, then water was added to moisturize. About 5 rice stems were placed in each dish, 10 larvae were introduced, and the culture dish was closed with non-woven fabric and placed in the constant-temperature room for culture. 3 days after the administration, the number of residual live insects was investigated.

Diamondback moth = experiment: Insecticidal activity against Diamondback moth, Airbrush spray on cabbage leaf discs; settings: Plutella xylostella, foliar, 72 h; for mortality at 1.25 µg/mL: 1.25 mg/L, 3rd-instar larvae, read-out: mortality rate against Diamondback moth; for mortality at 10 µg/mL: 10 mg/L, read-out: Mortality rate (%, 3 days after the administration) 10 mg/L; for mortality at 0.156 µg/mL: read-out: Mortality rate (%, 3 days after the administration) 0.156 mg/L; for mortality at 0.313 µg/mL: read-out: Mortality rate (%, 3 days after the administration) 0.313 mg/L
Protocol: as §1, §2
Determination method: cabbage leaves were formed into leaf discs having a diameter of 2 cm using a puncher, and the front and back of each leaf disc were sprayed under an Airbrush spray treatment pressure of 10 psi (approximate to 0.7 kg/cm^2) and with a spray volume of 0.5 mL. After drying in the shade, 10 3rd-instar larvae were inoculated for each treatment, and each treatment was repeated for 3 times. After the treatment, the leaf discs were placed into an observation chamber at 25° C. and with a relative humidity of 60% to 70%, and the number of living larvae was investigated 3 days after the administration of the compounds, and the mortality rates were calculated.

Mythimna separata = experiment: Insecticidal activity against Mythimna separata, Airbrush spray on maize leaf pieces; settings: 72 h, 0.05 mg/L, 3 days after the administration, 3rd-instar larvae, read-out: mortality rate against Mythimna separata
Protocol: as §1, §2
Determination method: maize leaves were cut into 2 cm leaf pieces, and the front and back of each leaf piece were sprayed under an Airbrush spray treatment pressure of 10 psi (approximate to 0.7 kg/cm^2) and with a spray volume of 0.5 mL. After drying in the shade, 10 3rd-instar larvae were inoculated for each treatment, and each treatment was repeated for 3 times. After the treatment, the leaf pieces were put into an observation chamber at 25° C. and with a relative humidity of 60% to 70%, and the number of living larvae was investigated 3 days after the administration of the compounds, and the mortality rates were calculated.

Spodoptera exigua = experiment: Insecticidal activity against Spodoptera exigua, leaf disc dipping feeding method; settings: foliar, 72 h, 0.625 mg/L, 3 days after the administration, read-out: mortality rate against Spodoptera exigua
Protocol: After the compound to be determined was dissolved in a mixed solvent of acetone/methanol (1:1), it was diluted with water containing 0.1% (wt) Tween-80 to a desired concentration. […]
Determination method: the activity was tested by using a leaf disc dipping feeding method. Leaf discs were dipped in a drug solution for 10 s, and placed in a culture dish after being air-dried, there were 4 discs in each dish, and a filter paper was placed in the culture dish for moisture retention. 10 test insects of Spodoptera exigua were introduced to each dish, with 3 replicates.
They were placed in a light incubator for culture at a temperature of 25° C. and an illumination of 14hL:10hD. On the 1st, 2nd, and 3rd day after the administration, the number of dead Spodoptera exigua was investigated and the mortality rate was calculated.

[1] = test system: Franklinella occidentalis; experiment: Insecticidal activity against Franklinella occidentalis nymphs, sprayed bean leaves
Protocol: as §1, §2
Determination method: fresh bean leaves cultivated in a greenhouse were selected, a hand-held Airbrush sprayer was used to spray uniformly, each treatment was 1 mL, and after being air-dried naturally, the leaves were placed in a finger-shaped tube. Neat and healthy Franklinella occidentalis nymphs were introduced, there were 15 nymphs for each treatment, 3 replicates were set for the experiment, and water treatment was set as a blank control. After the treatment, the leaves were put into an indoor culture room for culture at 24° C., a relative humidity of 60-70%, and natural light. After 72 h, the number of live insects was investigated and the mortality rate was calculated.

[2] = 3 days after the administration
[3] = 3 days after the administration, Diamondback moth
[4] = 0.156 mg/L, 3 days after the administration, Diamondback moth
[5] = 0.313 mg/L, 3 days after the administration, Diamondback moth

Row | SMILES | mortality at 50 µg/mL (Myzus persicae) | mortality at 1 µg/cm2 (cat flea) | mortality at 0.625 µg/mL (Chilo suppressalis) | mortality at 1.25 µg/mL (Diamondback moth; [2]) | mortality at 10 µg/mL (Diamondback moth; [3]) | mortality at 0.05 µg/mL (Mythimna separata) | mortality at 0.625 µg/mL (Spodoptera exigua) | Mortality rate (%, 3 days after the administration) 10 mg/L [1] | Mortality rate (%, 3 days after the administration) 100 mg/L [1] | also measured
1 | C=CCN(C(=O)c1ccc(C#N)cc1)c1cccc(C(=O)Nc2c(Br)cc(C(F)(C(F)(F)F)C(F)(F)F)cc2C(F)(F)F)c1F [Compound 11] | > 90% | > 90% | > 90% | > 90% | 100% | > 90% | > 90% |  |  | 
2 | CN(C(=O)c1ccc(F)cc1)c1cccc(C(=O)Nc2c(Br)cc(C(F)(C(F)(F)F)C(F)(F)F)cc2C(F)(F)F)c1F [KC4, reference compound] |  |  |  |  |  |  |  | 40.00% | 62.22% | mortality at 0.156 µg/mL (Diamondback moth; [4]): 60%; mortality at 0.313 µg/mL (Diamondback moth; [5]): 100%
3 | C#CCN(C(=O)c1ccc(C#N)nc1)c1cccc(C(=O)Nc2c(I)cc(C(F)(C(F)(F)F)C(F)(F)F)cc2C(F)(F)F)c1F [Compound 52] | > 90% | > 90% | > 90% | > 90% | 100% | > 90% | > 90% |  |  | 
4 | C#CCN(C(=O)c1ccc(C(F)(F)F)nc1)c1cccc(C(=O)Nc2c(Br)cc(C(F)(C(F)(F)F)C(F)(F)F)cc2C(F)(F)F)c1F [Compound 55] | > 90% | > 90% | > 90% | > 90% | 100% | > 90% | > 90% |  |  | 
5 | C=CCN(C(=O)c1ccc(C#N)cc1)c1cccc(C(=O)Nc2c(I)cc(C(F)(C(F)(F)F)C(F)(F)F)cc2C(F)(F)F)c1F [Compound 12] | > 90% | > 90% | > 90% | > 90% | 100% | > 90% | > 90% |  |  | 
6 | C=CCN(C(=O)c1ccc(C(F)(F)F)nc1)c1cccc(C(=O)Nc2c(Br)cc(C(F)(C(F)(F)F)C(F)(F)F)cc2C(F)(F)F)c1F [Compound 27] | > 90% | > 90% | > 90% | > 90% | 100% | > 90% | > 90% |  |  | 
7 | CN(C(=O)c1ccc(F)cc1)c1cccc(C(=O)Nc2c(I)cc(C(F)(C(F)(F)F)C(F)(F)F)cc2C(F)(F)F)c1F [KC5, reference compound] |  |  |  |  |  |  |  | 28.89% | 51.11% | mortality at 0.156 µg/mL (Diamondback moth; [4]): 73.3%; mortality at 0.313 µg/mL (Diamondback moth; [5]): 100%
8 | C=CCN(C(=O)c1ccc(C#N)nc1)c1cccc(C(=O)Nc2c(I)cc(C(F)(C(F)(F)F)C(F)(F)F)cc2C(F)(F)F)c1F [Compound 24] | > 90% | > 90% | > 90% | > 90% | 100% | > 90% | > 90% |  |  | 
9 | C#CCN(C(=O)c1ccc(C#N)cc1)c1cccc(C(=O)Nc2c(Br)cc(C(F)(C(F)(F)F)C(F)(F)F)cc2C(F)(F)F)c1F [Compound 39] | > 90% | > 90% | > 90% | > 90% | 100% | > 90% | > 90% |  |  | 
10 | C#CCN(C(=O)c1ccccc1)c1cccc(C(=O)Nc2c(C)cc(C(F)(C(F)(F)F)C(F)(F)F)cc2C)c1F [KC10, reference compound] |  |  |  |  | 100% |  |  |  |  | 
11 | C=CCN(C(=O)c1ccccc1)c1cccc(C(=O)Nc2c(C)cc(C(F)(C(F)(F)F)C(F)(F)F)cc2C)c1 [KC1, reference compound] |  |  |  |  | 0% |  |  |  |  | 
12 | CN(C(=O)c1ccc(F)nc1)c1cccc(C(=O)Nc2c(I)cc(C(F)(C(F)(F)F)C(F)(F)F)cc2C(F)(F)F)c1F [KC8, reference compound] |  |  |  |  |  |  |  | 53.33% | 82.22% | mortality at 0.156 µg/mL (Diamondback moth; [4]): 53.3%; mortality at 0.313 µg/mL (Diamondback moth; [5]): 86.7%
13 | C#CCN(C(=O)c1ccccc1)c1cccc(C(=O)Nc2c(C)cc(C(F)(C(F)(F)F)C(F)(F)F)cc2C)c1 [KC2, reference compound] |  |  |  |  | 0% |  |  |  |  | 
14 | CN(C(=O)c1ccccc1)c1cccc(C(=O)Nc2c(Br)cc(C(F)(C(F)(F)F)C(F)(F)F)cc2C(F)(F)F)c1F [KC3, broflanilide, reference compound] |  |  |  |  |  |  |  | 31.11% | 57.78% | mortality at 0.156 µg/mL (Diamondback moth): 50%; mortality at 0.313 µg/mL (Diamondback moth): 93.3%
15 | C=CCN(C(=O)c1ccccc1)c1cccc(C(=O)Nc2c(C)cc(C(F)(C(F)(F)F)C(F)(F)F)cc2C)c1F [KC9, reference compound] |  |  |  |  | 100% |  |  |  |  | 
16 | CN(C(=O)c1ccc(F)nc1)c1cccc(C(=O)Nc2c(Br)cc(C(F)(C(F)(F)F)C(F)(F)F)cc2C(F)(F)F)c1F [KC7, reference compound] |  |  |  |  |  |  |  | 53.33% | 80.00% | mortality at 0.156 µg/mL (Diamondback moth; [4]): 56.7%; mortality at 0.313 µg/mL (Diamondback moth; [5]): 100%
17 | O=C(Nc1cccc(C(=O)Nc2c(I)cc(C(F)(C(F)(F)F)C(F)(F)F)cc2C(F)(F)F)c1F)c1ccc(F)nc1 [KC6, reference compound] |  |  |  |  |  |  |  | 57.78% | 77.78% | mortality at 0.156 µg/mL (Diamondback moth): 46.7%; mortality at 0.313 µg/mL (Diamondback moth): 90%
